Data from publication PMC7555970, “Design, Synthesis and Biological Evaluation of Biphenylglyoxamide-Based Small Molecular Antimicrobial Peptide Mimics as Antibacterial Agents” (International Journal of Molecular Sciences, 2020).
≈ marks a conversion by molar mass, not a printed value. Like-named read-outs stand apart in the source and are kept apart here.

Columns and labels:
S. aureus (SA38) [1] = conditions: cited from earlier work
Gram-negative bacteria = test system: Gram-negative bacteria; parameters: method as in doi:10.1002/slct.201700336, PMID 28203673; conditions: previously reported ref 43, 44; cited from earlier work
P. aeruginosa (PA01) [2] = assay: Minimum inhibitory concentration (MIC) assay against P. aeruginosa; format: cell-based; conditions: Pseudomonas aeruginosa
Protocol: (§1) The antimicrobial activity of the compounds was evaluated by MIC assay using the procedure described by Clinical and Laboratory Standards Institute (CLSI). A single colony of bacteria was cultured overnight in trypticase soy broth (TSB; Oxoid, Basingstoke, UK) at 37 °C with shaking. The resulting bacterial culture was collected by centrifugation and resuspended in TSB twice. The optical density (OD) of the resulting culture was adjusted to OD660 = 0.1 in TSB (which is equivalent to 10^8 colony forming unit (CFU)/mL bacteria). It was further diluted to 10^6 CFU/mL in TSB. 100 µL of the bacterial solution was then added to wells of a 96-well plate (Costar; Sigma-Aldrich, St Louis, MO, USA) containing 100 µL serially diluted peptide mimic, with final concentration ranging from 1 to 250 µM. Wells with bacteria but no compound were used as negative control while wells with only media were set as blank. The plates were then wrapped with parafilm to prevent evaporation and incubated with shaking at 120 rpm at 37 °C for 18–24 h, and the data were recorded by measuring the OD value at 660 nm using a FLUOstar Omega (BMG Labtech, Mornington, Victoria, Australia) microplate reader. […] Each experiment was performed in triplicate and was repeated in three independent experiments.

S. aureus = assay: Time-kill kinetic / cell viability count assay; format: cell-based, Staphylococcus aureus
Protocol: The number of viable cells was confirmed by serially diluting aliquots of bacteria in D/E neutralizing broth (Remel, Lenexa, KS, USA) and plating onto Tryptic Soy Agar (Oxoid, Basingstoke, UK) containing phosphatidylcholine (0.7 g/L) and Tween 80 (5 mL/L). The plates were incubated at 37 °C overnight and numbers of live bacteria were enumerated and expressed as CFU/mL. The experiment was performed in triplicate.

[3] = test system: cytoplasmic membrane of S. aureus; assay: Cytoplasmic membrane permeability (diSC3-5 dye release) assay; format: cell-based, Staphylococcus aureus; conditions: 1× and 2× MIC
Protocol: Bacterial cytoplasmic membrane permeability was determined using membrane potential-sensitive dye diSC3–5 (3,3′-dipropylthiadicarbocyanine iodide), which penetrates inside bacterial cells depending on the membrane potential gradient of the cytoplasmic membrane. The procedure of this assay follows the method previously described by Wu et al. with slight modifications. Bacteria were grown in MHB to mid-log phase by incubating with shaking at 37 °C for […]. Following incubation, bacteria were washed with 5 mM HEPES containing 20 mM glucose at pH 7.2 and resuspended in the same buffer to an OD600 0.05–0.06 (yielding a final concentration of 10^7 CFU/mL). The dye diSC3–5 was added at 4 μM to the bacterial suspension. The suspensions were incubated at room temperature for 1 h in darkness for maximum dye take-up by the bacterial cells. 100 mM KCl was then added to balance the K^+ outside and inside the bacterial cell. 100 μL of bacterial suspension was added in a 96-well microtiter plate and with equal volume of antimicrobial compounds. DMSO (10%) was set as a positive control while dye and only bacterial cells were set as negative control. Fluorescence due to release of dye was measured with a luminescence spectrophotometer at 3 min intervals at an excitation wavelength of 621 nm and an emission wavelength of 670 nm.

E. coli (K12) [4] = assay: Minimum inhibitory concentration (MIC) assay against E. coli; format: cell-based; conditions: Escherichia coli
Protocol: as §1

[5] = test system: established S. aureus biofilms; assay: Biofilm disruption assay (crystal violet staining), S. aureus; format: cell-based, Staphylococcus aureus; conditions: 24 h treatment
Protocol: (§2) Bacterial cultures (S. aureus and E. coli) were grown in Muller Hinton broth (MHB; Oxoid, Basingstoke, UK) media overnight at 37 °C with shaking at 120 rpm. Cultures were diluted (1:20) in MHB medium and 200 µL aliquots were dispensed to wells in a flat bottom 96-well plate (Costar; Sigma-Aldrich, St Louis, MO, USA). Biofilm was then grown in the 96-well plate at 37 °C overnight. After that, loosely bound cells were washed away with 1x phosphate-buffered saline (PBS) and cultures were then supplemented with different concentrations of test compounds dissolved in DMSO and incubated for a further 24 h with shaking at 120 rpm. Biofilms adhered on the plate substratum were quantified using crystal violet staining as described previously. The experiment was performed in triplicate.

[6] = test system: MRC-5 normal human lung fibroblasts; assay: MTT toxicity assay; format: cell-based; conditions: Homo sapiens, MRC5, 72 h, 72 h drug incubation, read-out: IC50 against MRC-5 normal human lung fibroblasts
Protocol: The toxicity of the compounds was measured using an MTT (3-(4,5-dimethylthiazol-2-yl)-2,5-diphenyltetrazolium bromide) (Sigma Aldrich, St Louis, MO, USA) colorimetric assay against normal human lung fibroblasts MRC-5 cells. The cells were cultured in minimal essential medium (MEM; Sigma Aldrich, St Louis, MO, USA) containing 10% foetal bovine serum (FBS). The cells were maintained at 37 °C in 5% CO2 as an adherent monolayer and was passaged upon reaching confluence by standard cell culture techniques. MRC-5 cells were seeded at 5000 cells/well in 96-well plates to ensure full confluence (quiescence) and left overnight to adhere to the plate wells. The adherent cells were treated with 1–500 µM of compounds by dissolving in DMSO and serially diluting with media. The final concentration of DMSO was 0.5% (v/v). After 72 h drug incubation, […] stock MTT solution (5 mg/mL) was added and the cells were incubated for another 3.5–4 h. MTT solution-containing media was carefully aspirated without displacing the purple crystals from the bottom and […] acid-isopropanol was added to all wells and mixed slowly by shaking with an orbital shaker to dissolve the dark blue crystals. The metabolic activity was detected by spectrophotometric analysis by assessing the read absorbance (590/620 nm) on an EnSight plate reader (PerkinElmer, Waltham, MA, USA) and cell viability was expressed as a percentage of untreated control cells. The determination of IC50 values was performed using GraphPad Prism 6 (GraphPad, San Diego, CA, USA). Each experiment was performed in triplicate and was repeated in three independent experiments.

S. aureus (SA38) [7] = assay: Minimum inhibitory concentration (MIC) assay against S. aureus; format: cell-based, Staphylococcus aureus; conditions: Staphylococcus aureus
Protocol: as §1

E. coli (K12) [8] = conditions: cited from earlier work
P. aeruginosa (PA01) [9] = conditions: cited from earlier work
[10] = Tethered bilayer lipid membranes (tBLMs) assay, negatively charged membrane; conditions: for changes of membrane conduction: negatively charged membranes, higher concentrations (1–100 μM), compared to zwitterionic; for changes in membrane conductance: 30% POPG membranes, concentrations <1 μM; for membrane capacitance: negatively charged tBLMs, saturating concentrations
Protocol: (§3) Changes in membrane conduction and capacitance were measured using tethered bilayer lipid membranes (tBLMs) in association with AC electrical impedance spectroscopy techniques. Sparsely tethered tBLMs were prepared using a zwitterionic 1-palmitoyl-2-oleoyl-glycero-3-phosphocholine (POPC) (Avanti Lipids, USA) or a mixture of 30% palmitoyl-oleoyl-phosphatidylglycerol (POPG) (Avanti Lipids, USA) lipids with 70% POPC in order to create a negatively charged tBLM [66, 67]. To do this, gold-patterned polycarbonate slides were coated with tethered benzyl-disulfide (tetra-ethyleneglycol) n = 2 C20-phytanyl tethers:benzyl-disulfide-tetra-ethyleneglycol-OH spacers in the ratio of 1:10 (SDx Tethered Membranes Pty Ltd., Australia). A 3 mM solution of a mobile lipid phase POPC, or a 3 mM solution of mobile phase POPC/POPG (70:30), (Avanti Lipids, USA) in 100% ethanol was then incubated with the tethering chemistries. Lipids were left to incubate with the tethering chemistries for 2 min before being washed with 3 × […] of phosphate-buffered saline (PBS). Prior to the addition of the compounds, membrane stability was confirmed by 5 × 100 µL washes of the PBS vehicle. AC electrical impedance spectrometry (EIS) was then used to monitor any changes in membrane impedances as a result of adding the test compounds in increasing concentrations.
(§4) For EIS measures, a 50 mV peak-to-peak AC excitation from 0.1 to 2000 Hz with four steps per decade were recorded using a TethaPod™ operated with TethaQuick™ software (SDx Tethered Membranes Pty Ltd., Australia). The data were fitted to an equivalent circuit consisting of a Constant Phase Element (CPE), to represent the imperfect capacitance of the gold tethering electrode, in series with a Resistor/Capacitor network to represent the lipid bilayer membrane. Fitting of the phase and impedance data to the equivalent circuit was completed with a proprietary adaptation of a Lev Mar fitting routine. To account for variations in basal membrane conditions, data are normalised to a baseline conduction and capacitance values directly before the addition of each compound.

[11] = Tethered bilayer lipid membranes (tBLMs) assay, zwitterionic membrane; conditions: for changes of membrane conduction: zwitterionic membrane, higher concentrations (1–100 μM); for shift in membrane conductance: zwitterionic POPC tBLMs, concentrations as low as 100 nM; for membrane capacitance: zwitterionic tBLMs, saturating concentrations
Protocol: as §3, §4

[12] = test system: preformed E. coli biofilm; assay: Biofilm disruption assay (crystal violet staining), E. coli; format: cell-based, Escherichia coli; conditions: 4× MIC (64 μM), 24 h treatment
Protocol: as §2

[13] = previously reported values ref 51
[14] = no antibacterial activity at the highest concentration tested (250 μM) ref 43
[15] = any tested concentration (1×, 2× and 4× MIC)

N=C(N)NCCCNC(=O)C(=O)c1cc(Br)ccc1NC(=O)c1ccc2ccccc2c1 [Compound 5]
MIC against S. aureus (S. aureus (SA38) [1]; previously reported ref 44): 12 µM (≈ 5.96 µg/mL)
antibacterial activity against Gram-negative bacteria (Gram-negative bacteria): no antibacterial activity

CCCCCCCCS(=O)(=O)Nc1ccc(-c2ccc3ccccc3c2)cc1C(=O)C(=O)NCCCNC(=N)N.Cl [Compound 22d, N-(3-Guanidinopropyl)-2-(5-(naphthalen-2-yl)-2-(octylsulfonamido)phenyl)-2-oxoacetamide hydrochloride]
MIC (P. aeruginosa (PA01) [2]): > 250 µM
reduction in bacterial numbers (S. aureus; 1× and 2× MIC): less than 1 log
increase in diSC3-5 fluorescence intensity (cytoplasmic membrane disruption) [3]: modest
MIC (E. coli (K12) [4]): > 250 µM
disruption of preformed S. aureus biofilms ([5]; 4× MIC (32 μM)): 50%
IC50 [6]: 49.5 µM
MIC (S. aureus (SA38) [7]): 8 µM

pexiganan [pexiganan (MSI-78)]
MIC S. aureus (S. aureus (SA38) [1]; [13]): 3.2 to 6.5 µM
MIC E. coli (E. coli (K12) [8]; [13]): 3.2 to 6.5 µM
MIC P. aeruginosa (P. aeruginosa (PA01) [9]; [13]): 3.2 to 6.5 µM

CCCCCCCCS(=O)(=O)Nc1ccccc1C(=O)C(=O)NCCC[N+](C)(C)C [Compound 4a]
MIC against S. aureus (S. aureus (SA38) [1]; previously synthesised N-sulfonylphenylglyoxamide iodide salts ref 43): 250 µM
MIC against E. coli (E. coli (K12) [8]; [14]): > 250 µM
MIC against P. aeruginosa (P. aeruginosa (PA01) [9]; [14]): > 250 µM

CCCCCCCCS(=O)(=O)Nc1ccc(-c2ccccc2)cc1C(=O)C(=O)NCCCNC(=N)N.Cl [Compound 22a, N-(3-Guanidinopropyl)-2-(4-(octylsulfonamido)-[1,1’-biphenyl]-3-yl)-2-oxoacetamide hydrochloride]
changes of membrane conduction [10]: lower
MIC (P. aeruginosa (PA01) [2]): 63 µM
MIC (E. coli (K12) [4]): 63 µM
disruption of preformed S. aureus biofilms [5, 15]: failed to disrupt any
IC50 [6]: 75.5 µM
MIC (S. aureus (SA38) [7]): 8 µM
changes of membrane conduction [11]: more pronounced

CCCCCCCCS(=O)(=O)Nc1ccc(-c2ccc(F)cc2)cc1C(=O)C(=O)NCCCNC(=N)N.Cl [Compound 22b, 2-(4’-Fluoro-4-(octylsulfonamido)-[1,1’-biphenyl]-3-yl)-N-(3-guanidinopropyl)-2-oxoacetamide hydrochloride]
MIC (P. aeruginosa (PA01) [2]): 63 µM
reduction in bacterial numbers (S. aureus; 1× and 2× MIC): less than 1 log
disruption of preformed E. coli biofilm [12]: insignificant amount
increase in diSC3-5 fluorescence intensity (cytoplasmic membrane disruption) [3]: modest
MIC (E. coli (K12) [4]): 16 µM
disruption of preformed S. aureus biofilms ([5]; 4× MIC (32 μM)): 39%
IC50 [6]: 76 µM
MIC (S. aureus (SA38) [7]): 8 µM

CCCCCCCCS(=O)(=O)Nc1ccc(-c2ccc3ccccc3c2)cc1C(=O)C(=O)NCCC[N+](C)(C)C.[I-] [Compound 15d, N,N,N-Trimethyl-3-(2-(5-(naphthalen-2-yl)-2-(octylsulfonamido)phenyl)-2-oxoacetamido)propan-1-aminium iodide]
changes in membrane conductance [10]: notably absent
changes of membrane conduction [10]: lower
membrane capacitance [10]: large increase
MIC (P. aeruginosa (PA01) [2]): 250 µM
MIC (E. coli (K12) [4]): 63 µM
disruption of preformed S. aureus biofilms [5, 15]: failed to disrupt any
IC50 [6]: 112 µM
MIC (S. aureus (SA38) [7]): 8 µM
shift in membrane conductance [11]: 2.5 ×
changes of membrane conduction [11]: more pronounced
membrane capacitance [11]: large increase

CCCCCCCCS(=O)(=O)Nc1ccc(-c2ccc(Cl)cc2)cc1C(=O)C(=O)NCCC[N+](C)(C)C.[I-] [Compound 15c, 3-(2-(4’-Chloro-4-(octylsulfonamido)-[1,1’-biphenyl]-3-yl)-2-oxoacetamido)-N,N,N-trimethylpropan-1-aminium iodide]
changes in membrane conductance [10]: notably absent
changes of membrane conduction [10]: lower
membrane capacitance [10]: large increase
MIC (P. aeruginosa (PA01) [2]): 63 µM
reduction in bacterial numbers (S. aureus; 1× MIC): 1 log
reduction in bacterial numbers (S. aureus; 2× MIC): 2 log
disruption of preformed E. coli biofilm [12]: insignificant amount
increase in diSC3-5 fluorescence intensity (cytoplasmic membrane disruption) [3]: largest increase in fluorescence intensity
MIC (E. coli (K12) [4]): 16 µM
disruption of preformed S. aureus biofilms ([5]; 4× MIC (32 μM)): 35%
IC50 [6]: 95.8 µM
MIC (S. aureus (SA38) [7]): 8 µM
shift in membrane conductance [11]: 2.5 ×
changes of membrane conduction [11]: more pronounced
membrane capacitance [11]: large increase
